Reference: patent US20200087258A1, “INHIBITOR OF CITRATE TRANSPORTER AND THEIR USE IN THERAPY” (Eternygen GmbH, priority 2017, published 2020)

molecular target: T1, INDY (Homo sapiens, UniProt Q86YT5); experiment: 14C-citrate uptake in HepG2 cells endogenously expressing INDY (NaCT); assay type: cell-based; details: endogenous INDY
Method in brief: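 HepG2 cells, which express INDY endogenously, were preincubated with compound for 5 min at 37 °C in pH 6.5 Na+ citrate uptake buffer. 14C-citrate ([…]) was then added for 90 min at 37 °C. After washing and NaOH lysis, uptake was measured by scintillation counting, with 5 mM citrate as positive control.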

T1 sequence (Q86YT5 whole entry): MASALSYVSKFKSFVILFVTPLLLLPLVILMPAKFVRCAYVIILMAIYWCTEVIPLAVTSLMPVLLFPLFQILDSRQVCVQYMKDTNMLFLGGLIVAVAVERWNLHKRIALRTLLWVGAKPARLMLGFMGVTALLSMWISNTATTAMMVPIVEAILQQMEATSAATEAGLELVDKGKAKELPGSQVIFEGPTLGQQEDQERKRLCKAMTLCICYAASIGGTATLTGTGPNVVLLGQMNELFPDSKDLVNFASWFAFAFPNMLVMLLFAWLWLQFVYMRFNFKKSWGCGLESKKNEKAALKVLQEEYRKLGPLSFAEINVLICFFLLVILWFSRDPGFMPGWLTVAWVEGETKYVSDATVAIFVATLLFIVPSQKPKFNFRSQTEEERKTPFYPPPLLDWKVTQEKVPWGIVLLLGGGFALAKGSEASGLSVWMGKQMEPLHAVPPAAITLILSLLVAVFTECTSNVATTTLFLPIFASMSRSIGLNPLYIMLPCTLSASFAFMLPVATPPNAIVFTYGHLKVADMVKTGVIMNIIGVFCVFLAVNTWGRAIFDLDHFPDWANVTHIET

IC50	Structure (SMILES)
0.3 µM	O=C(NCc1ccccn1)C1CCN(S(=O)(=O)c2cc(Cl)cc(Br)c2)CC1 [Example 96, 1-(3-bromo-5-chlorobenzenesulfonyl)-N-[(pyridin-2-yl)methyl]piperidine-4-carboxamide]
0.1 µM	Nc1ccccc1CNC(=O)C1CCN(S(=O)(=O)c2cc(Cl)cc(Cl)c2)CC1 [Example 81, N-[(2-aminophenyl)methyl]-1-(3,5-dichlorobenzenesulfonyl)pipendine-4-carboxamide]

The remaining lines, values behind:

Structure (SMILES)	IC50
O=C(NCc1ccccc1F)C1CCN(S(=O)(=O)c2ccccc2)CC1 [Example 6, N-[(2-fluorophenyl)methyl]-1-(benzenesulfonyl) piperidine-4-carboxamide]	5.7 µM
O=C(NCc1ccccc1F)C1CN(S(=O)(=O)/C=C/c2ccccc2)C1 [Example 1, N-[(2-fluorophenyl)methyl]-1-[(E)-phenylethenesulfonyl]azetidine-3-carboxamide]	5.4 µM
CC(C)(C)c1ccc(S(=O)(=O)N2CC(C(=O)NCc3ccccc3Cl)C2)cc1 [Example 49, 1-(4-tert-butylbenzenesulfonyl)-N-[(2-chlorophenyl)methyl]azetidine-3-carboxamide]	9 µM

molecular target: T2, GLT-1 (Homo sapiens, UniProt P43004); experiment: 3H-glutamate uptake counter assay in HEK293 cells overexpressing human GLT-1; assay type: cell-based; details: not given
T2 construct: host or cells: HEK293 (virus made in GP293 packaging cells)
T2 sequence (P43004 whole entry): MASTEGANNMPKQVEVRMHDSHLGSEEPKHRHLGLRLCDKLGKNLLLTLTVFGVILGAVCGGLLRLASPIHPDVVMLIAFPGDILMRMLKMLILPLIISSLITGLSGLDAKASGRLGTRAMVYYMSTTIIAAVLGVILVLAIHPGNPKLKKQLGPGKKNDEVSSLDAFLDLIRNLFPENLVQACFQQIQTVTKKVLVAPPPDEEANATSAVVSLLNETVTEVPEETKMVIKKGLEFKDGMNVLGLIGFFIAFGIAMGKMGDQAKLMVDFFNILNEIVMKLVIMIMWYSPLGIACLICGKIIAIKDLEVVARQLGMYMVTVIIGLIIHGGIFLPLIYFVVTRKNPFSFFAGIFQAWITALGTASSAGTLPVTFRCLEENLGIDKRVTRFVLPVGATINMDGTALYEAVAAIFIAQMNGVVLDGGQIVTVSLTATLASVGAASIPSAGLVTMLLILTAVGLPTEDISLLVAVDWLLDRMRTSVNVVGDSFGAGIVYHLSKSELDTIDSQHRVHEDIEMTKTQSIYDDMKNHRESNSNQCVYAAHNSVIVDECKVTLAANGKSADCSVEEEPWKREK
Description: (§1) The compound was obtained by screening of a library containing more than 50,000 lead-like compounds and fragments. The library was tested using a functional citrate uptake assay with HEK293 cells overexpressing recombinant human INDY. The following hit confirmation was conducted in the same assay system. To confirm the activity of selected compounds on the target INDY another cell assay was conducted. In this assay system citrate uptake was measured using HepG2 cells which endogenously express INDY. Furthermore selectivity of selected compounds was tested for two other transporters in different assay systems. The first transporter was the glutamate transporter GLT-1 tested in a glutamate uptake assays using HEK293 cells overexpressing recombinant human GLT-1. The second transporter was the glucose transporter GLUT1 tested in a glucose uptake assay using Huh-7 cells which endogenously express GLUT1. Compounds were considered to be selective with an at least 5-fold higher activity for INDY than for the other two transporters.
(§2) Cells were maintained in cell medium using cell culture grade flasks (CellSTACK Corning, 500 cm2 dishes or T175 depending on cell number). The selection antibiotic and G418 (800 μg/ml) was added during cultivation but not for seeding into assay plates. For splitting, cells were washed with PBS (w/o Ca2+, Mg2+, phenol red) and detached with Trypsin/EDTA. Throughout cultivation cells were kept sub-confluent. Detached cells (50,000 cells/well) were seeded in 96-well plates (white, clear bottom from Corning #655098) and incubated over night before usage in the assay. The following media were used. For HEK293 cells expressing INDY MEM (PAA)+10% FCS+1×P/S+2 mM L-Gln; for HEK293 cells expressing GLT-1 DMEM (Gibco)+10% FCS+400 µg/ml G418; for Huh7 cells DMEM (Gibco)+10% FCS+2 mM L-Gin (+1×P/S); for HepG2 cells MEM (PAA, Cat # E15-024)+10% FCS+2 mM L-Gin+1×NEAA+1 mM Na-Pyruvat
The following assay buffers for the particular uptake reaction were used. Citrate uptake buffer: 120 mM NaCl, 5.4 mM KCl, 0.8 mM MgSO4, 5 mM glucose, 1.8 mM CaCl2, 25 mM Hepes, 25 mM MES, pH 6.5. Glutamate uptake buffer: HBSS, 1 mM CaCl2, 1 mM MgCl2, 20 mM Hepes pH 7.4. Glucose uptake buffer: 25 mM Hepes+25 mM MES pH 7.4, 120 mM NaCl, 5.4 mM KCl, 1.8 mM CaCl2, 0.8 mM MgSO4.
As a counter assay, Glutamate uptake by the GLT-1 transporter was used. The principle of the assay is to measure the uptake of ^3H labelled glutamate into HEK cells, which overexpress human GLT-1.
The generation of a GLT-1 cell line was performed as follows: human GLT11 isoform sv1 cDNA (Origene # RC223924) was cloned into vector pFB-Neo-CMV-hGLT1 using QIAfilter Plasmid Midi Kit (Qiagen). Virus was generated in GP293 packaging cells (transfection of plasmid with Lipofectamine 2000+OptiMEM). For transfection into HEK cells GP293, supernatant containing virus was passed through a 0.45 micron sterile filter and DEAE-dextran was added at […] final concentration. The solution was used to transfect HEK293 cells at 37° C., 8.5% CO2. After 24 h selection marker G418 at 400 μg/ml was added and cultivation medium performed in DMEM 10% FBS.
The assay was performed in a 96-well format using repeated washing steps, cell lysis and addition of scintillation fluid. Assay buffer was HBSS, 1 mM CaCl2, 1 mM MgCl2, […] pH 7.4. Cells were seeded into white clear-bottom 96-well plates (50,000/well) in the presence of Poly-D-Lysine and incubated at 37° C. for 16-24 hours. Subsequently the plates were washed once with assay buffer using automated washing/LS 405 Selectors, BioTek ending with a buffer volume of 40 μl. Then 5 μl of compound solution in assay buffer was added and incubated for 20 min at 37° C. in cell incubator, HERA cell Heraeus. Afterwards 10 μl of substrate 3H-Glu (3 nM) were added and incubated for another 20 min at 37° C. in cell incubator, HERAcell. Then the plates were washed once with 200 μl cold assay buffer and 150 μl scintillation fluid was added. […]

IC50	Structure (SMILES)
> 20 µM	O=C(NCc1ccccn1)C1CCN(S(=O)(=O)c2cc(Cl)cc(Br)c2)CC1 [Example 96, 1-(3-bromo-5-chlorobenzenesulfonyl)-N-[(pyridin-2-yl)methyl]piperidine-4-carboxamide]
> 20 µM	Nc1ccccc1CNC(=O)C1CCN(S(=O)(=O)c2cc(Cl)cc(Cl)c2)CC1 [Example 81, N-[(2-aminophenyl)methyl]-1-(3,5-dichlorobenzenesulfonyl)pipendine-4-carboxamide]

Continued, molecule first:

Structure (SMILES)	IC50
O=C(NCc1ccccc1F)C1CCN(S(=O)(=O)c2ccccc2)CC1 [Example 6, N-[(2-fluorophenyl)methyl]-1-(benzenesulfonyl) piperidine-4-carboxamide]	> 50 µM
CC(C)(C)c1ccc(S(=O)(=O)N2CC(C(=O)NCc3ccccc3Cl)C2)cc1 [Example 49, 1-(4-tert-butylbenzenesulfonyl)-N-[(2-chlorophenyl)methyl]azetidine-3-carboxamide]	> 20 µM

molecular target: T3, GLUT1 (Homo sapiens, UniProt P11166); experiment: 3H-glucose uptake counter assay in Huh7 cells endogenously expressing GLUT1; assay type: cell-based; details: endogenous GLUT1
T3 construct: Huh-7 cells which endogenously express GLUT1; endogenous in cells; host or cells: Huh-7
T3 sequence (P11166 1-492): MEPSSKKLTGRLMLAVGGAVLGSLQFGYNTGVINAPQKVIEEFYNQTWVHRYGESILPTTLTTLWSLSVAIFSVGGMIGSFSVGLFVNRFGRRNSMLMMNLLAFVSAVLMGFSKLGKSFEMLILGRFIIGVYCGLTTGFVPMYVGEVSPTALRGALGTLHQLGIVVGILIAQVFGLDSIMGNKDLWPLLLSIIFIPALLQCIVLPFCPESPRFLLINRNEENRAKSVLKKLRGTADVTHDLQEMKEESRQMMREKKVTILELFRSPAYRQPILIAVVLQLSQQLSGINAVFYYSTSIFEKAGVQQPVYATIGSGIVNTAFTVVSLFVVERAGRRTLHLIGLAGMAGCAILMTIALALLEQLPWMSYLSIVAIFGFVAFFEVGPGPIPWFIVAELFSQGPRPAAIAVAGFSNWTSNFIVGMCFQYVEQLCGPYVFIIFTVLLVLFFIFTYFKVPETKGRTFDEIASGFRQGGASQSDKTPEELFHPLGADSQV
Description: as §1
as §2, with “Na-Pyruvat […]” for “Na-Pyruvat”
Glucose uptake in Huh7 cells was measured as a counter assay. […] After 20 min incubation at RT plates were measured using TopCount system, Perkin Elmer. […]

IC50	Structure (SMILES)
> 50 µM	O=C(NCc1ccccc1F)C1CCN(S(=O)(=O)c2ccccc2)CC1 [Example 6, N-[(2-fluorophenyl)methyl]-1-(benzenesulfonyl) piperidine-4-carboxamide]
> 50 µM	O=C(NCc1ccccc1F)C1CN(S(=O)(=O)/C=C/c2ccccc2)C1 [Example 1, N-[(2-fluorophenyl)methyl]-1-[(E)-phenylethenesulfonyl]azetidine-3-carboxamide]

system: Indy; experiment: not given; details: at 0.1 mM; cited from earlier work

Structure (SMILES)	inhibition of Indy
O=C(O)CC(O)(C(=O)O)C(O)C(=O)O (stereo not drawn) [hydroxycitrate]	30-40%

molecular target: T1, INDY; experiment: 14C-citrate uptake in HEK293 cells overexpressing recombinant human INDY (NaCT); assay type: cell-based; set-up: expressed in transfected cells; host or cells: HEK293; details: not given
Method in brief: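 HEK293 cells overexpressing human NaCT, 50,000/well, preincubated 5-30 min at 37 °C with compound in pH 6.5 Na+ buffer. 14C-citrate ([…]) uptake then ran 20-90 min at 37 °C, followed by ice-cold washes, NaOH lysis and scintillation counting. 10 mM citrate served as positive control.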

IC50	Structure (SMILES)
0.4 µM	O=C(NCc1ccccn1)C1CCN(S(=O)(=O)c2cc(Cl)cc(Br)c2)CC1 [Example 96, 1-(3-bromo-5-chlorobenzenesulfonyl)-N-[(pyridin-2-yl)methyl]piperidine-4-carboxamide]
6.4 µM	CC(C)(C)c1ccc(S(=O)(=O)N2CC(C(=O)NCc3ccccc3Cl)C2)cc1 [Example 49, 1-(4-tert-butylbenzenesulfonyl)-N-[(2-chlorophenyl)methyl]azetidine-3-carboxamide]
0.4 µM	Nc1ccccc1CNC(=O)C1CCN(S(=O)(=O)c2cc(Cl)cc(Cl)c2)CC1 [Example 81, N-[(2-aminophenyl)methyl]-1-(3,5-dichlorobenzenesulfonyl)pipendine-4-carboxamide]
